We go through 22 compounds from ChEMBL document CHEMBL4402604, “Discovery and Structure-Activity Relationship Study of (Z)-5-Methylenethiazolidin-4-one Derivatives as Potent and Selective Pan-phosphatidylinositol 5-Phosphate 4-Kinase Inhibitors” (J Med Chem, 2020).

Data set [1] can be described thus: Lipophilicity, logD of the compound. The format is physicochemical. The following applies: octanol/water.
A short description of data set [2]: Permeability of the compound by PAMPA method. The format is ADME.
Data set [3] is described as follows: Stability in rat liver microsomes at 1 uM in presence of NADPH regeneration system incubated for 15 mins by LC-MS analysis. It counts as ADME, Microsome.
The target of data set [4] is Activin receptor type-2A (Homo sapiens) (UniProt P27037). The experiment in a line: Inhibition of human ACVR2A expressed in baculovirus expression system.

Active and inactive are the calls of the source. No cut-off for these calls is given here.

Chain of Activin receptor type-2A (Homo sapiens) (P27037 whole entry): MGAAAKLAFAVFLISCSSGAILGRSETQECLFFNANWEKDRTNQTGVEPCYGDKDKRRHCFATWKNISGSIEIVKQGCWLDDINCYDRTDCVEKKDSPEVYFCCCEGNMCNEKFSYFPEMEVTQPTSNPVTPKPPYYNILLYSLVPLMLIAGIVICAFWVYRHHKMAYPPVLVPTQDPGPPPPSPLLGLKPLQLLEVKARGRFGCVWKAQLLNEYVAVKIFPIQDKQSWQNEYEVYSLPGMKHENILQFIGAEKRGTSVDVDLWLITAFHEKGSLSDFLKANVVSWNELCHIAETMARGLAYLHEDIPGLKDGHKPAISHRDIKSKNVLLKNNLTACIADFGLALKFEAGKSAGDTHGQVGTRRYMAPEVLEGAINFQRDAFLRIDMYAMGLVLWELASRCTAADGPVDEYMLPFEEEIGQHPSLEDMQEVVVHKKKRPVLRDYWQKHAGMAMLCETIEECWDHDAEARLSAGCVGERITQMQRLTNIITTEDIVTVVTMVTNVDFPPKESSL

On to `CS(=O)(=O)Nc1ccc(-c2cncc(-c3ccc4[nH]ccc4c3)c2)cc1`, for which the logD in data set [1] worked out at 2.5.

In data set [1], `CS(=O)(=O)Nc1ccc(-c2cncc(/C=C3\SC(=N)NC3=O)c2)cc1` registered a logD of 0.66. The permeability result in data set [2] is on record as “Impermeable”. Also, the Stability result in data set [3] is on record as “Stable”.

Take `CS(=O)(=O)Nc1ccc(-c2cncc(/C=C3\SC(=O)NC3=O)c2)cc1`: in data set [1], the logD was -0.05. The Stability entry in data set [3] is “Stable”.

Compound `CC(=O)Nc1cccc(-c2cncc(/C=C3\SC(=N)NC3=O)c2)c1` showed a logD in data set [1] of 1.5.

With `CN(C)c1ccc(-c2cncc(/C=C3\SC(=N)NC3=O)c2)cc1`, the logD in data set [1] came to 2.4.

In data set [1], `COc1ccc(-c2cncc(/C=C3\SC(=N)NC3=O)c2)c2ccccc12` returned a logD of 3.1.

In turn, `CC(=O)Nc1ccc(-c2cncc(/C=C3\SC(=N)NC3=O)c2)cc1` gave a logD in data set [1] of 1.5.

As to `CC(=O)Nc1cccc(Nc2cncc(-c3ccc(NS(C)(=O)=O)cc3)c2)c1`, the logD in data set [1] is 1.5.

Regarding `CS(=O)(=O)Nc1ccc(-c2cncc(/C=C3\CC(=O)NC3=O)c2)cc1`, the logD in data set [1] was -0.14.

The compound `CS(=O)(=O)Nc1ccc(-c2cncc(-c3ccc4cc[nH]c4c3)c2)cc1` displayed a logD in data set [1] of 2.5.

As for `CS(=O)(=O)Nc1ccc(-c2cncc(-c3cccc4[nH]ccc34)c2)cc1`, in data set [1], the logD amounted to 2.5. Further, the permeability entry in data set [2] is “Permeable”. The Stability result in data set [3] is given as “Stable”. The inhibition entry in data set [4] was “Active”.

Consider `N=C1NC(=O)/C(=C/c2cncc(-c3ccc(OC(F)(F)F)cc3)c2)S1`, for which the logD in data set [1] is 3.7.

As for `CC(=O)Nc1cccc(-c2cncc(-c3ccc(NS(C)(=O)=O)cc3)c2)c1`, the logD in data set [1] was determined as 1.7.

Compound `CNC(=O)Nc1ccc(-c2cncc(-c3ccc(NS(C)(=O)=O)cc3)c2)cc1` showed a logD in data set [1] of 1.6.

`CNC(=O)Nc1ccc(-c2cncc(/C=C3\SC(=N)NC3=O)c2)cc1`: in data set [1], the logD was found to be 1.4.

As for `CS(=O)(=O)c1ccc(-c2cncc(/C=C3\SC(=N)NC3=O)c2)cc1`, the logD in data set [1] came out at 1.1.

On to `CS(=O)(=O)Nc1ccc(-c2cncc(-c3cccc4c3CC(=O)N4)c2)cc1`, for which the logD in data set [1] was 1.5.

`CS(=O)(=O)Nc1ccc(-c2cnc(N)c(/C=C3\SC(=N)NC3=O)c2)cc1` came in with a logD in data set [1] of 0.41.

Take `CS(=O)(=O)Nc1ccc(-c2cc(/C=C3\SC(=N)NC3=O)cnc2N)cc1`: in data set [1], the logD stood at 0.41. Also, the permeability entry in data set [2] is listed as “Impermeable”. Further, the Stability result in data set [3] is on record as “Stable”.

In data set [1], `CC(=O)Nc1cccc(Oc2cncc(-c3ccc(NS(C)(=O)=O)cc3)c2)c1` yielded a logD of 1.5.

Take `CNS(=O)(=O)c1ccc(-c2cncc(/C=C3\SC(=N)NC3=O)c2)cc1`: the logD in data set [1] was 1.1.

`CS(=O)(=O)Nc1ccc(-c2cncc(/C=C3\OC(=O)NC3=O)c2)cc1` returned a logD in data set [1] of -1.
